Reference: patent US20100075926A1, “ACTIVATION OF HISTONE DEACETYLASE 1 (HDAC1) PROTECTS AGAINST DNA DAMAGE AND INCREASES NEURONAL SURVIVAL” (priority 2008, published 2010)

Columns and labels:
Assay type in all cases: biochemical
[1] = target: T1, recombinant human HDAC1 (Homo sapiens, UniProt Q13547); experiment: 384-well fluorometric deacetylase assay (substrate MAZ1600), HDAC1; design: % HDAC1 Activ: unit not given here; conditions: for Classification: class assigned from the HDAC1, 2, 3, 5 panel; for HDAC1 slope: rate of reaction (slope), DMSO control 37787; for % HDAC1 Activ: slope normalized to mean of DMSO control (DMSO = 1.00)
T1 construct: purchased BPS Biosciences
T1 sequence (Q13547 whole entry): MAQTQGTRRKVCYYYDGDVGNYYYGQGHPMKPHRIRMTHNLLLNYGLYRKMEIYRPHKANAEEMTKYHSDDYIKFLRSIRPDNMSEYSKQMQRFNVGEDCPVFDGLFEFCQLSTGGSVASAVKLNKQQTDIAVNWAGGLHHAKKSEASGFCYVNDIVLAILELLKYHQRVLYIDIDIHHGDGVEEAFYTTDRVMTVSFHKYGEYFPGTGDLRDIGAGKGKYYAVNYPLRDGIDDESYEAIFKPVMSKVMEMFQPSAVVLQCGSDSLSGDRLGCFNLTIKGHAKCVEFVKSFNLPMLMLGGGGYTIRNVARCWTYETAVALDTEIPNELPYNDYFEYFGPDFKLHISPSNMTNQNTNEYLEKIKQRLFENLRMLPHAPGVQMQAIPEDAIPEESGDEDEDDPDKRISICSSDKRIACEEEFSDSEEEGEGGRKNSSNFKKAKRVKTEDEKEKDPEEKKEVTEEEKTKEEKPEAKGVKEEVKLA
Description: (§1) TCEP was omitted from the assay buffer. Rates of reactions (slopes) were normalized to the mean of DMSO control treatments for each enzyme on each plate. Bradner J E, West N, Grachan M L, Greenberg E F, Haggarty S J, Mazitsheck. Nature Chemical Biology (under review). Bradner J E, West N, Grachan M L, Greenberg E F, Haggarty S J, Mazitsheck. Chemical Phylogenetics of Histone Deacetylases. […] Z

[2] = target: T2, recombinant human HDAC5 (Homo sapiens, UniProt Q9UQL6); experiment: 384-well fluorometric deacetylase assay (substrate MAZ1675), HDAC5; conditions: for HDAC5 slope: rate of reaction (slope), DMSO control 50401; for % HDAC5 activ: slope normalized to mean of DMSO control (DMSO = 1.00)
T2 construct: purchased BPS Biosciences
T2 sequence (Q9UQL6 whole entry): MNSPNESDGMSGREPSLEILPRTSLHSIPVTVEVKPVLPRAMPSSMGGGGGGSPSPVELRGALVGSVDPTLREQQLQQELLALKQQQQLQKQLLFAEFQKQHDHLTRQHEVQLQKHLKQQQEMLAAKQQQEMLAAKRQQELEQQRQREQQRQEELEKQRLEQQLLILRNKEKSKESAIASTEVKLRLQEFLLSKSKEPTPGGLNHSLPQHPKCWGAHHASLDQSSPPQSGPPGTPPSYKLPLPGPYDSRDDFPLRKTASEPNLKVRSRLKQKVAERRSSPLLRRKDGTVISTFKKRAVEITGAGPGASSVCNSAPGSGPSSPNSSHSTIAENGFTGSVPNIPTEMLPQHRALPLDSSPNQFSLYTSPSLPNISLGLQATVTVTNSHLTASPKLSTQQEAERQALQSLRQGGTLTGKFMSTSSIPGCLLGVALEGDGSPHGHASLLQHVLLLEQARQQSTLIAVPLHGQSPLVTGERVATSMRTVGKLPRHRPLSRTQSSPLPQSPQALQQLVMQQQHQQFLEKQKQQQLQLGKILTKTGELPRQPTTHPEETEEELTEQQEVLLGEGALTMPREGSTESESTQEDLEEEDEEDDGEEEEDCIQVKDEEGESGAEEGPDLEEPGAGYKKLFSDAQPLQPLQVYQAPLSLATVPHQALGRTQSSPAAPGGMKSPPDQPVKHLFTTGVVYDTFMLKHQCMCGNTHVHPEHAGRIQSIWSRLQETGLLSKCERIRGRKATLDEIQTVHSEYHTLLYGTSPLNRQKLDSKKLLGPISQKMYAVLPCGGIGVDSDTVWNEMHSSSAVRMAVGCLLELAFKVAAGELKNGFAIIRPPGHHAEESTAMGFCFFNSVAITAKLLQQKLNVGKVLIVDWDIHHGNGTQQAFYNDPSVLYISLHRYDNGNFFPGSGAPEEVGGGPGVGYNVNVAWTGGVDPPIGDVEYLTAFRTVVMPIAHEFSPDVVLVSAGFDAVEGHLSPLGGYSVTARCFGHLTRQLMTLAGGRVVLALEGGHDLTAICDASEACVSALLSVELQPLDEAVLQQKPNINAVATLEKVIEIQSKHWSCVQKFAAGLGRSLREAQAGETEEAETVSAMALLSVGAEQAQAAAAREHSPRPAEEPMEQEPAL
Description: as §1

[3] = target: T3, recombinant human HDAC3 (Homo sapiens, UniProt O15379); experiment: 384-well fluorometric deacetylase assay (substrate MAZ1600), HDAC3; conditions: for HDAC3 slope: rate of reaction (slope), DMSO control 54625; for % HDAC3 Activ: slope normalized to mean of DMSO control (DMSO = 1.00)
T3 construct: purchased BPS Biosciences
T3 sequence (O15379 whole entry): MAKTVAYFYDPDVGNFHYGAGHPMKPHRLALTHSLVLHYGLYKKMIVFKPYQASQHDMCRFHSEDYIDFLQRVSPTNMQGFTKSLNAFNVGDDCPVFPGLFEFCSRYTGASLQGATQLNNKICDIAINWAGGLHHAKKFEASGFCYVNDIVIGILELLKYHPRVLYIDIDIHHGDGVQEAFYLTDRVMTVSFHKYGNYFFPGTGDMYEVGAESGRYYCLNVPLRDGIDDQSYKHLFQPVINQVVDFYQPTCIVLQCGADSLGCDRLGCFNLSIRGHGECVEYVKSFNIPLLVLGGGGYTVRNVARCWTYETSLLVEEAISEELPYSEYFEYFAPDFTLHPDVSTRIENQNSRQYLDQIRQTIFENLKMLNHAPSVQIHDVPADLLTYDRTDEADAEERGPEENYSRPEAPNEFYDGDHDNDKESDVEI
T3 sequence (Q9Y618 395-489 partner limits assumed): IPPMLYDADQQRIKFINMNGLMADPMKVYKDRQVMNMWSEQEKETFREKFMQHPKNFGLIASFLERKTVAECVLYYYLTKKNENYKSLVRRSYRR
Description: as §1

[4] = target: T4, recombinant human HDAC2 (Homo sapiens, UniProt Q92769); experiment: 384-well fluorometric deacetylase assay (substrate MAZ1600), HDAC2; conditions: for HDAC2 slope: rate of reaction (slope), DMSO control 40839; for % HDAC2 Activ: slope normalized to mean of DMSO control (DMSO = 1.00)
T4 construct: purchased BPS Biosciences
T4 sequence (Q92769 whole entry): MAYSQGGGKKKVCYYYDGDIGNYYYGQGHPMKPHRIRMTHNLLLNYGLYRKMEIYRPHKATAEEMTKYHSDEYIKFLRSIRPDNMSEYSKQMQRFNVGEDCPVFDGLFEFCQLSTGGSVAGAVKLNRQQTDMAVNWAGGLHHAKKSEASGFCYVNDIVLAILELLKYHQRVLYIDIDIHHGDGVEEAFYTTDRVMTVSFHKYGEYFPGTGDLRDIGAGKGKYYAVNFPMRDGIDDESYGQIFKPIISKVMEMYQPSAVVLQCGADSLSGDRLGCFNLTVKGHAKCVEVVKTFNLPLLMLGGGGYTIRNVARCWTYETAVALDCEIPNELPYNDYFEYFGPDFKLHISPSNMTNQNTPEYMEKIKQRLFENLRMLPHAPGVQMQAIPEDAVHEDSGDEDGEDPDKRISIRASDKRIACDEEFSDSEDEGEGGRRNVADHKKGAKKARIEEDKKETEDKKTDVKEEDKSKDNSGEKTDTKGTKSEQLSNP
Description: as §1

| Compound | Classification [1] | HDAC1 slope [1] | HDAC5 slope [2] | HDAC3 slope [3] | HDAC2 slope [4] | % HDAC1 Activ [1] | % HDAC5 activ [2] [%] | % HDAC3 Activ [3] | % HDAC2 Activ [4] |
| --- | --- | --- | --- | --- | --- | --- | --- | --- | --- |
| CCN(CC)CCc1nc(-c2ccccc2)no1.O=C(O)CC(O)(CC(=O)O)C(=O)O [Oxalamine citrate salt] | HDAC1 & HDAC3 activator | 40700 | 47216 | 60752 | 41269 |  |  |  |  |
| CC1(C)S[C@@H]2[C@H](NC(=O)[C@H](N)c3ccccc3)C(=O)N2[C@H]1C(=O)O [Ampicillin trihydrate] | HDAC1 & HDAC3 activator | 40160 | 46606 | 56660 | 43966 |  |  |  |  |
| O=C(O)[C@H]1C[C@@H](CP(=O)(O)O)CCN1 [CGS 19755] | HDAC1 activator | 41839 | 48280 | 57057 | 42301 |  |  |  |  |
| Oc1cc2c(c(Cl)c1O)CCNC[C@@H]2c1ccccc1 [R(+)-SKF- 81297] | HDAC1 & HDAC3 activator | 40201 | 48294 | 66733 | 42197 |  |  |  |  |
| O=C(O)[C@@H]1C[C@H]2C[C@@H](CP(=O)(O)O)CC[C@H]2CN1 [LY 235959] | HDAC1 & HDAC3 activator | 40893 | 43688 | 65435 | 42923 |  |  |  |  |
| phenazopyridine hydrochloride [Phenazo- pyridine hydrochloride] | HDAC1 activator | 40631 | 54125 | 56613 | 42470 | 1.08 | 107 | 1.04 fraction of DMSO control | 1.04 fraction of DMSO control |
| NCC(CC(=O)O)c1ccc(Cl)s1 (racemic) [(+-)-4-amino-3-(5-chloro-2-thienyl)-butanoic acid] | HDAC1 activator | 40239 | 50272 | 54049 | 40008 | 1.06 | 100 | 0.99 fraction of DMSO control | 0.98 fraction of DMSO control |
| COc1cc([C@@H]2c3cc4c(cc3[C@H](O)[C@H]3COC(=O)[C@H]23)OCO4)cc(OC)c1OC [Podophyllo toxin, podophyllotoxin] | HDAC1 activator | 40983 | 54734 | 53416 | 39197 |  |  |  |  |
| C[C@](N)(Cc1ccc(O)c(O)c1)C(=O)O [Methyldopa (L,-)] | HDAC1 & HDAC3 activator | 40553 | 56516 | 60891 | 42153 |  |  |  |  |
| NC(C(=O)O)c1nnn[nH]1 (racemic) | HDAC1 activator | 40343 | 45589 | 56930 | 42215 |  |  |  |  |
| N[C@H](CC(=O)O)C(=O)O [D- ASPARTIC ACID, D-aspartic acid] | HDAC1 activator | 40655 | 45291 | 54899 | 42016 |  |  |  |  |
| CC(O)(P(=O)([O-])O)P(=O)([O-])O.[Na+].[Na+] [Etidronic acid, disodium salt] | HDAC1 & HDAC3 activator | 40241 | 51711 | 58286 | 41315 |  |  |  |  |
| CP(=O)(O)CCCN [SK&F 97541] | HDAC1 activator | 40213 | 49250 | 54915 | 39881 |  |  |  |  |
| C[C@H](N)[C@H](O)c1ccc(O)c(O)c1 [Levonordefrin] | HDAC1 & HDAC3 activator | 40405 | 47752 | 62457 | 40182 |  |  |  |  |
